Data set [1] concerns Porcine Smooth Muscle Cell. As to the kind of experiment: Cell proliferation using 3H thymidine incorporation. The class given is cell-based. The settings on record: for pIC50: serum/growth factor stimulated cells, 3H thymidine incorporation, 24-36 h, read-out: Porcine Smooth Muscle Cell Antiproliferation IC50; for inhibition at 500 µM: Sus scrofa, read-out: Porcine Smooth Muscle Cell Antiproliferation, % inhibition. Here is the method:
Effects of Compounds on Cell Proliferation Using ^3H Thymidine Incorporation
Human and porcine smooth muscle cells were tested in early passage (generally passage 3-7) at sub-confluent conditions. Cultures were grown in 16 mm (24 well) multi-well culture dishes in medium 199 supplemented with 10% fetal bovine serum and 2% antibiotic/antimycotic. At sub-confluence, the cells were placed in a defined serum free medium (AIM-V; Gibco) for 24-48 h prior to initiating the experimental protocol.
Compounds were added to each well at 50 fold dilution (20 μL/well) and the plates were incubated for 24-36 h at 37° C. in 5% CO2. Compounds were initially dissolved in 50% ethanol and serially diluted into media. Compounds were routinely evaluated at concentrations from 1 to 100 μM. As a control, grade II porcine intestinal mucosal heparin (sodium salt) was routinely evaluated in all cell preparations at concentrations from 0.1 to 100 μg/mL.
At the completion of the test procedure, plates were placed on ice, washed three times with ice cold phosphate buffered saline (PBS) and incubated in ice cold 10% trichloroacetic acid (TCA) got 30 min to remove acid soluble proteins. Solution was transferred to scintillation vials containing 0.4 N HCl (500 μL/vial to neutralize NaOH) and each well was rinsed two times with water (500 μL) for a total volume of 2 mL/vial.
Data was obtained, in triplicate, for both control and experimental samples. Control (100%) data was obtained from maximally stimulated cells, as the result of growth factor or serum stimulation. Experimental data was obtained from cells maximally stimulated with growth factor or serum and treated with compound. Data are expressed as an IC50 in Table I below.
For orientation: Incorporation of labelled thymidine or its analogues reports DNA synthesis.

pIC50: −log10 of the molar value.

On to “5-(Deca-O-acetyl-β-D-maltotriosyloxymethyl)-2-chloro-1-nitrobenzene [Example 1]”, for which the pIC50 in data set [1] was 5.74. `CC(=O)Nc1cc(COC2OC(CO)C(OC3OC(CO)C(OC4OC(CO)C(O)C(O)C4O)C(O)C3O)C(O)C2O)ccc1Cl` [Example 3, N-[5-(β-D-maltotriosyloxymethyl)-2-chloro-phenyl]-acetamide]: the melting point (in general, the temperature, or range, at which the solid turns liquid) was 135 to 148 °C. For the same compound, in data set [1], the inhibition at 500 µM amounted to 10%. The like results for `Nc1cc(COC2OC(CO)C(OC3OC(CO)C(OC4OC(CO)C(O)C(O)C4O)C(O)C3O)C(O)C2O)ccc1Cl` [Example 5, 5-(β-D-maltotriosyloxymethyl)-2-chloro-phenylamine] were, in that order, 95 to 134 °C and 25%. As for “N-[5-(Deca-O-acetyl-β-D-maltotriosyloxymethyl)-2-chloro-phenyl]-acetamide [Example 2]”, in data set [1], the pIC50 is 4.65.

As for “N-[5-(Deca-O-sulfo-β-D-maltotriosyloxymethyl)-2-chloro-phenyl]-acetamide decasodium salt [Example 4]”, the pIC50 in data set [1] was 3.95.

The values are drawn from patent US6451767B1, “Benzylmaltotriosides as inhibitors of smooth muscle cell proliferation” (Wyeth, priority 1998, dated 2002).
